From a melting point compilation (Tetko et al.; mined from patent text by program, amines drawn as free bases though some values may be those of a salt) come the findings set out here.

As a reminder, the melting point is the temperature of the solid-liquid transition. As to `CN1CCC(C2CCN(c3ncc4ncnc(Nc5ccc(F)c(Cl)c5)c4n3)CC2)CC1`, the melting point fell in the range of 159 to 162 °C.
As for `CN1CCN(c2cccc3c2C[C@H](NC(=O)CCc2ccccc2)CC3)CC1`, the figure is 184 to 186 °C; as for `FC(F)C(F)(F)Sc1nc(-c2cccs2)c(-c2cccs2)[nH]1`, 162 to 164 °C.
As for `CC(C)=Cn1cnc2c(N)nc3ccccc3c21`, the figure is 284 to 289 °C; as for `CCCc1ccnc2c(=O)[nH]c(-c3cc(N)ccc3OCC)nc12`, 156 to 158 °C; as for `NC(=O)c1cc(NCc2ccccc2)c([N+](=O)[O-])cc1[N+](=O)[O-]`, 143 to 146 °C.
The compound `CC(Oc1ncn(-c2cc(Cl)cc(Cl)c2)n1)C(=O)O` (stereo unspecified) returned a melting point of 230 to 231 °C.
In turn, `CC(C)=C(C(=O)O)c1cc(C(C)C)c(O)c2c(Cc3ccccc3)cccc12` displayed a melting point of 264 to 266 °C.
With `Nc1cc(C(=O)O)c(N)c2c1C(=O)c1ccccc1C2=O` the figure was 352 °C.
Turning to `CCC(=CC(CNC(=O)Cc1cccnc1)=NO)C(C)[N+](=O)[O-]` (stereo unspecified), the melting point lay in the range of 123 to 125 °C.
For `O=C(NC1CCN(CCc2ccc([N+](=O)[O-])cc2)CC1)c1ccccc1`, the melting point lay in the range of 209 to 216 °C.
As to `CCN(CC)CCOc1ccc(N2C(=O)C(c3ccccc3)=C3CCCCC32)cc1` (stereo unspecified), the melting point amounted to 81 °C.
As for `Cc1nc(N)c(O)c(=O)[nH]1`, the figure is > 300 °C; as for `O=C(Nc1nc2ccc(Sc3cnc4ncc(NCc5ccccc5)cn34)cc2s1)C1CC1`, > 260 °C.
As for `COC1C(OC(=O)c2ccc(N)cc2)C=C(C)C(=O)CC1(C)C` (stereo unspecified), the figure is 159 to 161 °C.
The compound `Clc1cccc2c1Nc1ccccc1N=C2N1CCN(Cc2ccc3c(c2)OCO3)CC1` displayed a melting point of 160 to 162 °C.
As for `O=C(NCCNCC(O)COc1ccccc1)c1cc(O)ccc1O` (stereo unspecified), the figure is 178 to 180 °C; as for `CC(C)(CF)C(=O)Cn1cncn1`, 59 °C.
`CC1CC=C(c2nnn[nH]2)CN1CC(=O)O` (stereo unspecified) displayed a melting point of 136 to 138 °C.
As for `CCOC(=O)c1c(C)nc2cc(C)ccn12`, the figure is 59 to 61 °C; as for `CCCCCCCCCCOc1cc(OCCCCCCCCCC)cc(C(=O)C(=O)N(CC(=O)O)CC(=O)O)c1`, 76 to 78 °C.
As for `CCCOC[C@]1(OC)CC[C@H]2[C@@H]3CCC4=CC(=O)CCC4=C3[C@@H](c3ccc(C(C)=O)cc3)C[C@@]21C`, the figure is 118 to 120 °C; as for `CC(c1cc(Cl)ccc1O)c1cc(Br)ccc1O` (stereo unspecified), 167 °C; as for `COP(=O)(CN[C@@H](Cc1ccc(-c2ccccc2)cc1)C(=O)NCCC(=O)O)OC`, 122 to 123 °C.
With `Cn1ncc(/C=C/C(=O)O)c1-c1cccnc1` the figure was 236 to 237 °C.
Compound `COc1ccc(CN2C(=O)C(C)(c3ccc(F)cc3Cl)c3cc(Cl)ccc32)c(OC)c1` (stereo unspecified) gave a melting point of 166 °C.
In turn, `Fc1cc(-c2nc3ccccc3o2)ccc1CBr` yielded a melting point of 150 to 152 °C.
As for `CC(=O)OCC(=O)C1(O)CCC2C3CCC4=CC(=O)CCC4(C)C3CCC21C` (stereo unspecified), the figure is 236 °C.
`COc1ccc2nc(-c3ccc(N)cc3)sc2c1` gave a melting point of 191 to 193 °C.
As for `O=C(O)Cc1c(C(=O)c2cc(CO)ccn2)[nH]c2cc(Cl)ccc12`, the figure is 210 to 212 °C; as for `c1ccc(C(CC2CC3CCN2CC3)c2ccccc2)cc1` (stereo unspecified), 87.5 to 89 °C; as for `CCCc1cc(F)c2oc(Cc3ccc(OC)cc3)c(C)c2c1OC(C)=O`, 85 to 88 °C.
With `Nc1ccc(F)c(C(=O)Nc2ccccc2)c1` the figure was 120 to 122 °C.
With `COc1cc(Nc2nccc(-c3ccsc3)n2)cc(OC)c1OC` the figure was 163 °C; with `CCCN(CCC)c1ccccc1C(C)C(C(N)=O)c1ccc(C(=O)O)cc1` (stereo unspecified), 175 to 178 °C.
As to `O=C(Cl)c1cn(CCCCl)c(=O)c2ccccc12`, the melting point stood at 101 °C.
As for `CS(=O)(=O)NC(=O)CCCCCCCCCCCNC(=O)NC12CC3CC(CC(C3)C1)C2`, the figure is 103 °C; as for `Cc1onc(-c2ccccc2Cl)c1CCC(=O)O`, 79 to 81 °C.
With `CS(=O)(=O)Cc1cc(Br)ccc1C(=O)c1cnoc1C1CC1` the figure was 154 °C.
As for `O=C(Cc1ccccc1)Nc1ccc2ccc(Cl)nc2n1`, the figure is 187 °C; as for `CCn1ncc(N=O)c1N`, 135 to 136 °C; as for `CN(C)c1ccc2c(c1)C(=O)C(n1ccnc1)CC2` (stereo unspecified), 160 to 162 °C.
As to `CN(c1nc(-c2cc3ccccc3[nH]c2=O)cs1)S(=O)(=O)c1ccc(Br)cc1`, the melting point fell in the range of 280 to 282 °C.
In turn, `C[Si](C)(C)CC(O)(Cn1nc[nH]c1=S)c1ccc(F)cc1` (stereo unspecified) gave a melting point of 107 °C.
Compound `Cc1ccc(-c2cccc(/C=C/C(=O)Nc3ccc(CN4CCCCC4CCO)cc3)c2)cc1` (stereo unspecified) displayed a melting point of 142 to 143 °C.
For `Cc1[nH]cnc1/C=C/C(=O)c1cc2ccccc2s1`, the melting point was in the range of 188 to 190 °C.
Compound `CN(C(CCn1c(=O)cc(Cl)[nH]c1=O)C(=O)NO)S(=O)(=O)c1ccc(Oc2cccc(Cl)c2)cc1` (stereo unspecified) yielded a melting point of 168 to 170 °C.
As to `O=C(CCc1nc(CCl)no1)c1ccc(-c2ccccc2)cc1`, the melting point is 153 to 154 °C.
With `CCCCCCCC/C=C\CCCCCCCC1=C(O)C(=O)C=C(OC)C1=O` the figure was 69.5 to 70.5 °C; with `CS(=O)(=O)c1ccc(-c2sc(N3CCCCC3)nc2-c2ccc(F)cc2)cc1`, 173 to 175 °C; with `Cc1nc[nH]c1CSCCN=C(NC#N)NCCSCc1[nH]cnc1C`, 92 to 95 °C.
As for `COC(=O)CCC(=O)c1ccc(S)cc1`, the figure is 83 to 84 °C; as for `N#CCCSc1ccc(Cl)cc1`, 53 to 54 °C; as for `C=CN1CC/C(=C\C)C1=O`, 59 to 61 °C.
`CC(C)CC(=O)NC(=O)c1nnn(Cc2ccccc2)c1N` showed a melting point of 138 to 150 °C.
The compound `CN1CCC(=C2c3ccccc3C=Cc3ccc(C(=O)O)cc32)CC1` had a melting point of 300 to 305 °C.
With `Cc1[nH]cnc1/C=C/C(=O)c1cc2ccccc2n1C` the figure was 222 to 224 °C; with `COc1ccc2nc(COc3ccc(CC(Nc4ccccc4C(=O)c4ccccc4)C(=O)O)cc3)n(C)c2c1` (stereo unspecified), 140 to 146 °C; with `CCCN1NC(c2ccc(OC)cc2)C2=C1C(=Cc1ccc(OC)cc1)CSC2` (stereo unspecified), 132 to 134 °C.
As for `CC(C(O)c1ccc(N)cc1)N1CCC(Cc2ccccc2)CC1` (single isomer, unassigned; (-)), the figure is 104 to 107 °C; as for `CN1CCc2ccc3cc[nH]c3c2CC1`, 150 to 153 °C.
`CC(C)OC(=O)C=CC(=O)NC(N)=O` returned a melting point of 113 to 114 °C.
As for `NS(=O)(=O)c1ccccc1OC(F)(F)C(F)Cl` (stereo unspecified), the figure is 113 to 116 °C.
In turn, `CCCCCC(C)C(C)c1cc(OC)c2c(c1)OC(C)(C)C1=C2CN(C(=N)OC)CC1` (stereo unspecified) gave a melting point of 134 to 136 °C.
In turn, `OC(Cc1nc[nH]n1)(Cc1nc[nH]n1)c1ccc(Cl)cc1Cl` had a melting point of 182 to 185 °C.
For `Cc1ccc(S(=O)(=O)OCCOc2ccc(N)c(CS(=O)(=O)c3ccccc3)c2)cc1`, the melting point lay within 144 to 146 °C.
In the case of `Cc1ccc2nc(-c3ccc4c(c3)sc(=N)n4C)sc2c1`, the melting point was 146 to 148 °C.
With `O=C(NNC(=O)c1cccc([N+](=O)[O-])c1)c1ccc([N+](=O)[O-])cc1` the figure was 250 to 251 °C.
The compound `CC(C)N(c1nc(Cl)nc(N2C(C)(C)CC3(CC2(C)C)OCCO3)n1)C(C)C` yielded a melting point of 179 to 184 °C.
`CCCN1C(=O)CC(=O)N(CCC)C1=O` gave a melting point of 77 to 80 °C.
As for `CCN(C)c1nc2sc3c(NCc4ccccn4)ncnc3c2c2c1CCC(C)(C)C2`, the melting point came to 152 °C.
With `CC(C)(C)NC(=O)c1ccc2[nH]ccc2c1` the figure was 176 °C.
Turning to `CC(C)(C)OC(=O)N1CCC(N2C(=O)OCc3cc(Cl)ccc32)CC1`, the melting point lay in the range of 177 to 179 °C.
`Cc1nn(-c2ccccn2)c2nc3ccccc3c(N(C)C)c12` showed a melting point of 98 to 101 °C.
As for `O=C(O)c1cc(C(=O)O)c2c(c1)C(C(=O)O)CC(c1ccccc1)N2` (stereo unspecified), the figure is 300 °C.
With `Cn1nc(C(F)(F)F)cc1Oc1cccc(C(=O)NCC(F)(F)F)n1` the figure was 136 °C; with `Cc1cccc2nc(C(C)(C)NC(=O)COC3c4ccccc4-c4ccccc43)oc(=O)c12`, 162 to 163 °C; with `Cc1ccc2c(c1)c(-c1ccc(F)cc1)cn2N`, 116 to 120 °C.
Take `Cc1cc(NC(=O)OC(C)(C)C)c(N)cc1C#Cc1ccccc1`: the melting point is 172 to 173 °C.
`Cc1cc(OCc2ccc(-c3ccc(OC(F)(F)F)cc3)nc2)ccc1OC(C)(C)C(=O)O` returned a melting point of 146 to 148 °C.
Regarding `CCCCCCCCCCCCCCCCCc1nc(C(C)N)c[nH]1` (stereo unspecified), the melting point lay in the range of 38 to 40 °C.
With `CC(C)NC(=S)Nc1ccc(Cl)c(-c2ccnc3c(C(=O)c4cccs4)cnn23)c1`, the melting point was 194 to 195 °C.
As for `CC(C)(C)OC(=O)NCc1ccc(CC(=O)O)cc1`, the figure is 89 to 91 °C; as for `CCCC[C@H](NC(=O)[C@H](CC(C)C)NC(=O)c1cccc(F)c1F)C(=O)CSCc1ccco1`, 120 to 122 °C.
As for `COC(=O)C(Cc1ccccc1)NC(=O)C(N)(CC(=O)O)C(=O)N1CCCCC1` (stereo unspecified), the figure is 225 to 227 °C; as for `COC(=O)c1ccc(OCC2CN(c3ccc(N)cc3)C(=O)O2)cc1` (stereo unspecified), 139 to 142 °C; as for `Cc1cccc(CCCCCCCCC(=O)Cl)c1`, 96 to 98 °C.
Take `CS(=O)(=O)N(Cc1ccccc1)c1ccc(C2CO2)cc1` (stereo unspecified): the melting point lay in the range of 89 to 92 °C.
With `CCN(CC)c1ccc2nc3c4ccccc4c(=Nc4cccnc4)cc-3oc2c1`, the melting point fell in the range of 198 to 199 °C.
As for `CCC1=CC(Cl)(NC2CCC(C(C(=O)OC)C(=O)OC)CC2)NC=N1` (stereo unspecified), the figure is 82 to 83 °C; as for `CCOC(=O)C(=CNc1cscc1OCC)C(=O)OCC`, 108 to 109 °C.
